Laboratory results taken from article PMC11078990, “Identification and characterization of small molecule inhibitors of the LINE-1 retrotransposon endonuclease” (Nature Communications, 2024).
Where “and” joins values, the source holds several entries; their conditions need not be identical. Identical values can stand only once. Like-named read-outs stand apart in the source and are kept apart here.

Tests used:
[1] = molecular target: L1 EN (LINE-1 retrotransposon endonuclease domain) (Homo sapiens, UniProt O00370, N5T); experiment: Fluorescent oligonucleotide EN nicking activity assay; assay type: biochemical
APE1 = molecular target: T1, APE1 (Homo sapiens, UniProt P27695); experiment: APE1 fluorescent oligonucleotide activity assay (abasic site substrate); assay type: biochemical; conditions: for activity at 25 µM: read-out: APE1 activity (%)
T1 construct: purchased New England Biolabs (NEB) M0282S

[2] = tested on: substrate oligonucleotide used in the EN activity assay; assay type: binding; parameters: key to Binding Detected? (Y/N): Binding Detected? (Y/N); Binding Detected? (Y/N)
L1 retrotransposition = experiment: HeLa dual-luciferase L1 retrotransposition assay; assay type: cell-based, human
[3] = tested on: DNA fragmentation (comet tail length) in HeLa Tet-On cells expressing EN domain; experiment: Neutral comet assay, EN domain-only constructs; assay type: cell-based, human
HeLa Tet-On cells = conditions: human
[4] = read-out: EN activity, percent of no inhibitor control
[5] = [Inhibitor] 5 μM, technical replicates 1-3, Fig. 2b source data, 5 µM
[6] = [Inhibitor] 25 μM, technical replicates 1-3, Fig. 2b source data, 25 µM
[7] = [Inhibitor] 100 μM, technical replicates 1-3, Fig. 2b source data, 100 µM
[8] = [Inhibitor] 100 μM, technical replicates 1-3, Fig. 2b source data, read-out: EN activity, percent of no inhibitor control
[9] = [Inhibitor] 250 μM, technical replicates 1-3, Fig. 2b source data, 250 µM
[10] = [Inhibitor] 500 μM, technical replicates 1-3, Fig. 2b source data, 500 µM
[11] = [Inhibitor] 500 μM, technical replicates 1-3, Fig. 2b source data, read-out: EN activity, percent of no inhibitor control
[12] = [Inhibitor] 1000 μM, technical replicates 1-3, Fig. 2b source data, 1000 µM
[13] = [Inhibitor] 1000 μM, technical replicates 1-3, Fig. 2b source data, read-out: EN activity, percent of no inhibitor control
[14] = [Inhibitor] 2500 μM, technical replicates 1-3, Fig. 2b source data, 2500 µM
[15] = 250 µM, Supplementary Fig. 6b, n=3
[16] = 250 µM, Supplementary Fig. 6b, replicates 1-3
[17] = compound at 25 μM, average of 3 replicates
[18] = inhibitors at 25 μM, relative to 0 μM inhibitor control, mean ± s.d., 3 independent experiments

L1 EN (LINE-1 retrotransposon endonuclease domain), sequence (O00370 1-239 N5T): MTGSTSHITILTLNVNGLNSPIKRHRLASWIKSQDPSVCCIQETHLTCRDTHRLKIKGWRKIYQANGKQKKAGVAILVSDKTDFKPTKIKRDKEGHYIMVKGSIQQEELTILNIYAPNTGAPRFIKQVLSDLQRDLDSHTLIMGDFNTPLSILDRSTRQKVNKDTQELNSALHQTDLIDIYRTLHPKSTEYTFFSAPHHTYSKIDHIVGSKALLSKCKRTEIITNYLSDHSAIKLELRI

## C/C(=N\Nc1ccc([N+](=O)[O-])cc1[N+](=O)[O-])c1ccc(-n2nncc2C(C)(C)C)cc1 [AD7]
[1]; 5 µM
  EN activity, percent of no inhibitor control: 101.994% and 98.1742% and 77.1828%
[1]; 25 µM
  EN activity, percent of no inhibitor control: 96.2152% and 94.2464%
[1]; 50 µM
  EN activity, percent of no inhibitor control: 105.792% and 87.7855%
[1]; 100 µM
  EN activity, percent of no inhibitor control: 94.7448% and 86.2812%
[1]; 250 µM
  EN activity, percent of no inhibitor control: 48.1744% and 80.4178% and 71.8348%
[1]; 500 µM
  EN activity, percent of no inhibitor control: 47.3691%
[1]; 750 µM
  EN activity, percent of no inhibitor control: 44.5063% and 42.7569%
[1]; 1000 µM
  EN activity, percent of no inhibitor control: 33.3657% and 34.4723%
[1]; 1500 µM
  EN activity, percent of no inhibitor control: 8.772% and 6.335%
[1]; [4]
  remaining activity at 25 µM: 86.8%
  remaining activity at 50 µM: 88.2%
  remaining activity at 100 µM: 97.9%
  remaining activity at 500 µM: 61.3%
  remaining activity at 750 µM: 34.4%
  remaining activity at 1000 µM: 39.3%
  remaining activity at 1500 µM: 7.91%
APE1
  APE1 percent activity, Replicate 1: 123.061%
  APE1 percent activity, Replicate 2: 113.794%
  APE1 percent activity, Replicate 3: 119.588%
  APE1 percent activity, average: 118.815%
  Percent APE1 activity, average: 103.1%
  Percent APE1 activity, replicates: 105.066% and 99.3868% and 104.87%
  activity at 25 µM: 119 ± 4.7%
[2]
  Binding Detected? (Y/N): N
L1 retrotransposition
  Effect on L1 retrotransposition: some activity in the retrotransposition assay
  Luciferase (retrotransposition), average: 2.314
  Luciferase (retrotransposition), replicates: 2.087 and 1.842 and 2.6465 and 2.682
[3]
  Nuclei comet tail length, average (WT = 1): 0.8142
HeLa Tet-On cells
  PrestoBlue (viability), average: 16.01

## O=C(CCCCCCCCCCC(=O)Nc1cccc([N+](=O)[O-])c1)Nc1cccc([N+](=O)[O-])c1 [AD11]
[1]; 0.1 µM
  EN activity, percent of no inhibitor control: 84.764% and 74.2098%
[1]; 0.5 µM
  EN activity, percent of no inhibitor control: 87.7394% and 79.0744%
[1]; 1 µM
  EN activity, percent of no inhibitor control: 78.4622% and 83.3471%
[1]; 5 µM
  EN activity, percent of no inhibitor control: 48.2874% and 49.6964%
[1]; 25 µM
  EN activity, percent of no inhibitor control: 8.361% and 7.932%
[1]; 50 µM
  EN activity, percent of no inhibitor control: 2.144% and 3.212%
[1]; 100 µM
  EN activity, percent of no inhibitor control: 0.8407% and 0.78% and 1.633%
[1]; [4]
  remaining activity at 0.1 µM: 87.2%
  remaining activity at 0.5 µM: 73.3%
  remaining activity at 1 µM: 78.1%
  remaining activity at 5 µM: 54.9%
  remaining activity at 25 µM: 6.58%
  remaining activity at 50 µM: 2.44%
  remaining activity at […]: 65.8%
APE1
  APE1 percent activity, Replicate 1: 77.2032%
  APE1 percent activity, Replicate 2: 89.204%
  APE1 percent activity, Replicate 3: 71.7475%
  APE1 percent activity, average: 79.3849%
  activity at 25 µM: 79.4 ± 8.9%
[2]
  Binding Detected? (Y/N): N
L1 retrotransposition
  L1 retrotransposition, average: 2.364 and 2.4307 and 2.013 and 1.968 and 2.0024 and 1.896 and 1.695 and 1.484
  Luciferase (retrotransposition), average: 3.993
  Luciferase (retrotransposition), replicates: 4.575 and 4.225 and 3.621 and 3.549
[3]
  Nuclei comet tail length, average (WT = 1): 0.8117
HeLa Tet-On cells
  PrestoBlue (viability), average: 15.84

## COc1ccc(OC)c(NS(=O)(=O)c2ccc(NS(=O)(=O)c3cccc([N+](=O)[O-])c3)cc2)c1 [AD36]
[1]; [5]
  EN activity, percent of no inhibitor control: 91.0252% and 84.1869%
[1]; [Inhibitor] 5 μM, technical replicates 1-3, Fig. 2b source data, read-out: EN activity, percent of no inhibitor control
  remaining activity at 5 µM: 89.6%
[1]; [6]
  EN activity, percent of no inhibitor control: 101.21% and 100.403%
[1]; [Inhibitor] 25 μM, technical replicates 1-3, Fig. 2b source data, read-out: EN activity, percent of no inhibitor control
  remaining activity at 25 µM: 82%
[1]; [7]
  EN activity, percent of no inhibitor control: 79.4211% and 84.6024%
[1]; [8]
  remaining activity at 100 µM: 96.7%
[1]; [9]
  EN activity, percent of no inhibitor control: 66.0801% and 55.4717%
[1]; [Inhibitor] 250 μM, technical replicates 1-3, Fig. 2b source data, read-out: EN activity, percent of no inhibitor control
  remaining activity at 250 µM: 47.9%
[1]; [10]
  EN activity, percent of no inhibitor control: 50.9528% and 49.6683%
[1]; [11]
  remaining activity at 500 µM: 60.1%
[1]; [Inhibitor] 750 μM, technical replicates 1-3, Fig. 2b source data, 750 µM
  EN activity, percent of no inhibitor control: 44.0742% and 35.8636%
[1]; [Inhibitor] 750 μM, technical replicates 1-3, Fig. 2b source data, read-out: EN activity, percent of no inhibitor control
  remaining activity at 750 µM: 31.6%
[1]; [12]
  EN activity, percent of no inhibitor control: 29.1344% and 22.6241%
[1]; [13]
  remaining activity at 1000 µM: 19.6%
[1]; [Inhibitor] 1750 μM, technical replicates 1-3, Fig. 2b source data, 1750 µM
  EN activity, percent of no inhibitor control: 17.5242% and 11.215% and 25.1816%
[1]; [14]
  EN activity, percent of no inhibitor control: 18.2597% and 42.0507% and 24.6475%
APE1; [15]
  Percent APE1 activity, average: 108.9%
APE1; [16]
  Percent APE1 activity, replicates: 115.202% and 104.299% and 107.269%
APE1; compound at 25 μM, Replicate 1
  APE1 percent activity, Replicate 1: 121.786%
APE1; compound at 25 μM, Replicate 2
  APE1 percent activity, Replicate 2: 104.892%
APE1; compound at 25 μM, Replicate 3
  APE1 percent activity, Replicate 3: 127.866%
APE1; [17]
  APE1 percent activity, average: 118.181%
APE1; [18]
  activity at 25 µM: 118 ± 11.9%
[2]
  Binding Detected? (Y/N): N
L1 retrotransposition; 0.5 μM inhibitor, average of 4 replicates, Figure 4b
  L1 retrotransposition, average: 4.647
L1 retrotransposition; 1 μM inhibitor, average of 4 replicates, Figure 4b
  L1 retrotransposition, average: 4.699
L1 retrotransposition; 5 μM inhibitor, average of 4 replicates, Figure 4b
  L1 retrotransposition, average: 4.066
L1 retrotransposition; 10 μM inhibitor, average of 4 replicates, Figure 4b
  L1 retrotransposition, average: 4.169
L1 retrotransposition; 25 μM inhibitor, average of 4 replicates, Figure 4b
  L1 retrotransposition, average: 2.81
L1 retrotransposition; 50 μM inhibitor, average of 4 replicates, Figure 4b
  L1 retrotransposition, average: 1.253
L1 retrotransposition; Figure 4a Graph 4, 25μM, 0μM average 3.426
  Luciferase (retrotransposition), average: 1.266
L1 retrotransposition; Figure 4a Graph 4, 25μM, Replicates 1-4, 0μM average 3.426
  Luciferase (retrotransposition), replicates: 1.765 and 0.7621 and 1.278 and 1.259
L1 retrotransposition; HeLa cells
  Effect on L1 retrotransposition: some activity in the retrotransposition assay
HeLa Tet-On cells; 48 h, 25 μM
  PrestoBlue (viability), average: 15.2

## O=C(Cn1nc(-c2ccc(Br)cc2)ccc1=O)NC[C@H]1CC[C@H](C(=O)O)CC1 [AD43]
[1]; [5]
  EN activity, percent of no inhibitor control: 82.7533% and 93.1928% and 121.814%
[1]; [6]
  EN activity, percent of no inhibitor control: 125.36% and 146.969% and 130.066%
[1]; [Inhibitor] 50 μM, technical replicates 1-3, Fig. 2b source data, 50 µM
  EN activity, percent of no inhibitor control: 105.857% and 111.128%
[1]; [Inhibitor] 50 μM, technical replicates 1-3, Fig. 2b source data, read-out: EN activity, percent of no inhibitor control
  remaining activity at 50 µM: 117%
[1]; [7]
  EN activity, percent of no inhibitor control: 119.496% and 103.054%
[1]; [8]
  remaining activity at 100 µM: 106%
[1]; [9]
  EN activity, percent of no inhibitor control: 70.4269% and 99.2352% and 82.7621%
[1]; [10]
  EN activity, percent of no inhibitor control: 75.3754% and 92.6354%
[1]; [11]
  remaining activity at 500 µM: 82.7%
[1]; [12]
  EN activity, percent of no inhibitor control: 36.4624% and 21.4688%
[1]; [13]
  remaining activity at 1000 µM: 31.2%
[1]; [14]
  EN activity, percent of no inhibitor control: -1.238% and -2.463% and -2.08%
APE1; [15]
  Percent APE1 activity, average: 116.3%
APE1; [16]
  Percent APE1 activity, replicates: 119.605% and 105.469% and 123.903%
APE1; compound at 25 μM, Replicate 1
  APE1 percent activity, Replicate 1: 116.306%
APE1; compound at 25 μM, Replicate 2
  APE1 percent activity, Replicate 2: 108.363%
APE1; compound at 25 μM, Replicate 3
  APE1 percent activity, Replicate 3: 123.152%
APE1; [17]
  APE1 percent activity, average: 115.94%
APE1; [18]
  activity at 25 µM: 116 ± 7.4%
[2]
  Binding Detected? (Y/N): N
L1 retrotransposition; Figure 4a Graph 5, 50μM, 0μM average 4.537
  Luciferase (retrotransposition), average: 2.141
L1 retrotransposition; Figure 4a Graph 5, 50μM, Replicates 1-4, 0μM average 4.537
  Luciferase (retrotransposition), replicates: 2.066 and 2.337 and 2.1059 and 2.055
L1 retrotransposition; HeLa cells
  Effect on L1 retrotransposition: some activity in the retrotransposition assay
HeLa Tet-On cells; 48 h, 50 μM
  PrestoBlue (viability), average: 6.621
